Laboratory results: PubChem BioAssay (NCI)
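The compound was tested at five concentrations on cells cultured in 96-well plates, with a 48-hour exposure period. TGI: concentration producing complete growth inhibition.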

What was measured:
Test in all cases: growth of human tumour cells (NCI), 48 h
[1] = test system: 786-0 renal
[2] = test system: CAKI-1 renal
[3] = test system: HCT-15 colon
[4] = test system: HOP-92 NSCLC
[5] = test system: HT29 colon
[6] = test system: IGROV1 ovarian
[7] = test system: K-562 leukemia
[8] = test system: KM12 colon
[9] = test system: MCF7 breast
[10] = test system: MDA-MB-435
[11] = test system: OVCAR-4 ovarian
[12] = test system: OVCAR-5 ovarian
[13] = test system: RPMI-8226 leukemia
[14] = test system: RXF 393 renal
[15] = test system: SF-268 CNS
[16] = test system: SNB-19 CNS
[17] = test system: SR leukemia
[18] = test system: SW-620 colon
[19] = test system: UACC-62 melanoma
[20] = test system: LXFL 529 NSCLC

Row | Compound | TGI [1] [µM] | TGI [2] [µM] | TGI [3] [µM] | TGI [4] [µM] | TGI [5] [µM] | TGI [6] [µM] | TGI [7] [µM] | TGI [8] [µM] | TGI [9] [µM] | TGI [10] [µM] | TGI [11] [µM] | TGI [12] [µM] | TGI [13] [µM] | TGI [14] [µM] | TGI [15] [µM] | TGI [16] [µM] | TGI [17] [µM] | TGI [18] [µM] | TGI [19] [µM] | TGI [20] [µM]
1 | CCOC(=O)C1=NN(c2ccc(C)cc2)C2(c3ccccc3)C=C(c3ccccc3)N(C)CCN12 (stereo not given) | > 100 | > 100 | > 100 | > 100 | > 100 | > 100 | > 100 | > 100 | > 100 | > 100 | > 100 | > 100 | > 100 | > 100 | > 100 | > 100 | > 100 | > 100 | > 100 | 
2 | Cc1c(C)c(S(=O)(=O)N(CCCN)OCCCN)c(C)c2c1OC(C)(C)CC2 | 29.4 | 30.1 | 29.3 | 19.9 | 28.4 | 20.3 | 29.6 | 25.6 | 29.1 | 29.6 | 23.6 | 25.8 | 35.7 | 21.4 | 26.9 | 24.9 | 33.4 | 29 | 28 | 
3 | O=C1NCN(c2ccccc2)C12CCN(CCCN1CCN(CCOC(c3ccccc3)c3ccccc3)CC1)CC2 | 2.31 | 7.43 | 5.19 | 5.54 | 4.22 | 7.4 | 1.09 | 5.97 | 6.23 | 2.46 | 7.47 | 10.1 | 5.23 | 4.68 | 5.77 | 7.77 | 2.04 | 5.95 | 7.69 | 
4 | CC(C)(Oc1ccc2c(=O)cc(-c3ccc(Cl)cc3)oc2c1)C(=O)Nc1c(Cl)cccc1Cl | > 100 | > 100 | > 100 | > 100 | > 100 | > 100 | > 100 | > 100 |  |  |  | > 100 | > 100 |  | > 100 | > 100 | > 100 | > 100 | > 100 | > 100
5 | CC1=C(C(=O)O)N2C(=O)[C@@H](NC(=O)C(c3ccccc3)N3CSC(=S)N(C(C)C)C3)C2SC1 (stereo not given in full) | > 100 | > 100 | > 100 | > 100 | > 100 | > 100 | > 100 | > 100 |  |  | > 100 | > 100 | > 100 |  |  | > 100 |  |  | > 100 | > 100
6 | CCCCCCCCCCCCCC(=O)OCC(CCS(=O)(=O)O[C@H]1CC[C@@]2(C)C(=CC[C@@H]3C2CC[C@]2(C)C(=O)CCC32)C1)OC(=O)CCCCCCCCCCCCC (stereo not given in full) | > 100 | > 100 | > 100 | > 100 | > 100 | > 100 | > 100 | > 100 | > 100 | > 100 | > 100 | > 100 | > 100 | > 100 | > 100 | > 100 | > 100 | > 100 | > 100 | 
7 | C[C@H](CCC(=O)O)[C@H]1CC[C@H]2[C@@H]3[C@@H](O)C[C@@H]4C[C@H](O)CC[C@]4(C)[C@H]3C[C@H](O)[C@]12C | > 100 | > 100 | > 100 | > 100 | > 100 | > 100 | > 100 | > 100 | > 100 | > 100 | > 100 | > 100 | > 100 | > 100 | > 100 | > 100 | > 100 | > 100 | > 100 | 
8 | CC1(C)C(CBr)=[N+]([O-])C(C)(C)N1O | 9.78 | 5.87 | > 8.12 | 5.5 | > 10 | > 10 | > 8.04 | > 10 | > 10 | > 8.08 | 4.23 | > 10 | > 8.63 | 8.15 | > 10 | > 10 | > 10 | 4.86 | > 10 | 
9 | CO/S(=N/S(=O)(=O)c1ccccc1)c1ccccc1[N+](=O)[O-] (stereo not given) | > 100 | > 100 | > 100 |  | > 100 | > 100 | > 100 | > 100 |  |  | > 100 | > 100 | > 100 |  | > 100 | > 100 | > 100 | > 100 | > 100 | > 100
10 | C=C(C)[C@@]12C[C@H](OC(=O)[C@H](O)[C@@H](NC(=O)c3ccccc3)c3ccccc3)C(C)=C1[C@@H](OC(C)=O)C(=O)[C@@]1(C)C([C@@H]2OC(=O)c2cc(F)cc(F)c2)C2(OC(C)=O)CO[C@@H]2C[C@@H]1O (stereo not given in full) | 3.3 | > 10 | > 5.21 | > 10 | 1.4 | > 10 | > 6.66 | > 3.26 | > 10 | 0.0818 | > 10 | 1.51 | 0.547 | 0.582 | > 7.16 | > 10 | > 3.64 | > 10 | 3.26 | 
11 | CC12CP(=O)(O)CC1C2(Cl)Cl (stereo not given) | > 100 | > 100 | > 100 | > 100 | > 100 | > 100 | > 100 | > 100 | > 100 | > 100 | > 100 | > 100 | > 100 | > 100 | > 100 | > 100 | > 100 | > 100 | > 100 | 
12 | O=CC1=CCCN(CCc2c[nH]c3ccccc23)C1 | 117 | 141 | 83.2 | 121 | 116 | 176 | > 393 | 128 |  |  |  | 126 | > 393 | 85.8 | 162 | 92.9 | > 393 | 89.9 | 111 | 45.8
